{
  "source": "paper PMC4783567",
  "about": "“The Effect of Vinpocetine on Human Cytochrome P450 Isoenzymes by Using a Cocktail Method” (Evidence-based Complementary and Alternative Medicine : eCAM, 2016)",
  "experiment_in_all_cases": "five-probe cocktail in human liver microsomes, LC-MS/MS of metabolites",
  "format_in_all_cases": "biochemical",
  "key": {"CYP2C9": {"biological_target": "T1, CYP2C9 (Homo sapiens, UniProt P11712)", "T1 construct": "native enzyme in pooled human liver microsomes (BD Gentest); activity read by tolbutamide 4-hydroxylation", "T1 sequence (P11712 whole entry)": "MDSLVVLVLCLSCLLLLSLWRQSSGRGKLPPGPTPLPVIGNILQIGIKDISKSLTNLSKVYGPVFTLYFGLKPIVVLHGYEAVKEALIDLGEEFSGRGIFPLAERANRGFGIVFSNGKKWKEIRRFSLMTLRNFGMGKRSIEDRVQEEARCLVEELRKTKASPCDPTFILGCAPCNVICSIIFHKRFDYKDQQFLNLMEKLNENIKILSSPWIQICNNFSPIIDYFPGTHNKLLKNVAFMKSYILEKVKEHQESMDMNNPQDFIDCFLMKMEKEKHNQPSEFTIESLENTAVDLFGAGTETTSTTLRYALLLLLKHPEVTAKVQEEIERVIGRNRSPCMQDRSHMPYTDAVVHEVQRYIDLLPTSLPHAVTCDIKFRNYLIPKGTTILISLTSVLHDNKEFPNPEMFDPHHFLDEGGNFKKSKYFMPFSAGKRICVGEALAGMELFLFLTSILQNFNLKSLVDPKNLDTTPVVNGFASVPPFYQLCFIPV", "details": "tolbutamide 4-hydroxylation, printed 100 mM tolbutamide (unit as printed), 1 mM NADPH, 3.3 mM MgCl2, pH 7.4, 37°C, 30 min; b29 prints 68.91; Table 2 prints vinpocetine in μg/mL, methods in μM", "source_text": "five-probe cocktail in human liver microsomes, LC-MS/MS of metabolites on CYP2C9"}, "CYP2E1": {"biological_target": "T2, CYP2E1 (Homo sapiens, UniProt P05181)", "T2 construct": "native enzyme in pooled human liver microsomes (BD Gentest); activity read by chlorzoxazone 6-hydroxylation", "T2 sequence (P05181 whole entry)": "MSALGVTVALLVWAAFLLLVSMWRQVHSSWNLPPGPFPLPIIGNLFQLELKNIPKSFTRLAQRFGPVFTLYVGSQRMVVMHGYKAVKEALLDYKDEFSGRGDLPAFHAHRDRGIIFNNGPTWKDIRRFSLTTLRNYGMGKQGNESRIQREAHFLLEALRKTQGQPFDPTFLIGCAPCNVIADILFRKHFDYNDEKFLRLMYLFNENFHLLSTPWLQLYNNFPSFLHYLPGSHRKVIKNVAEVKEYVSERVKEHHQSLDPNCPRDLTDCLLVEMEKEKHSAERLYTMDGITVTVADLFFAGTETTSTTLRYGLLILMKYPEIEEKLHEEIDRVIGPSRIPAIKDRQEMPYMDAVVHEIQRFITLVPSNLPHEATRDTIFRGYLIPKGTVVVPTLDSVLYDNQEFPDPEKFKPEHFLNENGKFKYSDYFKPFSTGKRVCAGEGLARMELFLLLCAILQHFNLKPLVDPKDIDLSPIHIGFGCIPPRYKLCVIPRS", "details": "chlorzoxazone 6-hydroxylation, printed 50 mM chlorzoxazone (unit as printed), 1 mM NADPH, pH 7.4, 37°C; unreliable (extrapolated above top concentration 100 μM; text says > 100 μM)", "source_text": "five-probe cocktail in human liver microsomes, LC-MS/MS of metabolites on CYP2E1"}, "CYP2C19": {"biological_target": "T3, CYP2C19 (Homo sapiens, UniProt P33261)", "T3 construct": "native enzyme in pooled human liver microsomes (BD Gentest); activity read by omeprazole 5-hydroxylation", "T3 sequence (P33261 whole entry)": "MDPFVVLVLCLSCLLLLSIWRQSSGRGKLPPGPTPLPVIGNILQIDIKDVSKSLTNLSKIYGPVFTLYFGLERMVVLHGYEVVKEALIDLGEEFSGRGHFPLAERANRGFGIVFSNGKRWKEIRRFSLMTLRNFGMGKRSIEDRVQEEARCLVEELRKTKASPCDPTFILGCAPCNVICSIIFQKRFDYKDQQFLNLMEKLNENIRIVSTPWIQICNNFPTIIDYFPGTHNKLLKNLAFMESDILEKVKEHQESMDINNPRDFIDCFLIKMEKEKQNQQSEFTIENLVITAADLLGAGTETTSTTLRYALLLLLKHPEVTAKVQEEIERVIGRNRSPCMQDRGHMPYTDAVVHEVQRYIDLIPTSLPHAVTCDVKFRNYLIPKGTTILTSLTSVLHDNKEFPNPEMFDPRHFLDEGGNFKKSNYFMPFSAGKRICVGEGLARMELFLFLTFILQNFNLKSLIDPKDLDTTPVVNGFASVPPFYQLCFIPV", "details": "omeprazole 5-hydroxylation, printed 50 mM omeprazole (unit as printed), 1 mM NADPH, pH 7.4, 37°C; unreliable (extrapolated above top concentration 100 μM; text says > 100 μM)", "source_text": "five-probe cocktail in human liver microsomes, LC-MS/MS of metabolites on CYP2C19"}, "CYP2D6": {"biological_target": "T4, CYP2D6 (Homo sapiens, UniProt P10635)", "T4 construct": "native enzyme in pooled human liver microsomes (BD Gentest); activity read by dextrorphan formation from dextromethorphan", "T4 sequence (P10635 whole entry)": "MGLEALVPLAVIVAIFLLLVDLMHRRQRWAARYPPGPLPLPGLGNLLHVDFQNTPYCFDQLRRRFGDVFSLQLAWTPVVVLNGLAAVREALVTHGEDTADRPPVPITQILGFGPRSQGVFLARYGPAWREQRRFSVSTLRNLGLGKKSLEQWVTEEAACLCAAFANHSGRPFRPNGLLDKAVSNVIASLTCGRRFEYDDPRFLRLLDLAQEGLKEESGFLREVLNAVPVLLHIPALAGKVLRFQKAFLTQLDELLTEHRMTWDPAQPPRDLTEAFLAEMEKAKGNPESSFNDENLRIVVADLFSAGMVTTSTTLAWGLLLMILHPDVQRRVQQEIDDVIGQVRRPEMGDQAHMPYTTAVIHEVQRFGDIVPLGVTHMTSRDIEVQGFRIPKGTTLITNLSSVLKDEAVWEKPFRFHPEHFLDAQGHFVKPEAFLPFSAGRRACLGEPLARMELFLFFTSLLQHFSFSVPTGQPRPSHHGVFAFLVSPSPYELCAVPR", "details": "dextrorphan formation, printed 5 mM dextromethorphan (unit as printed), 1 mM NADPH, pH 7.4, 37°C; unreliable (extrapolated above top concentration 100 μM; text says > 100 μM)", "source_text": "five-probe cocktail in human liver microsomes, LC-MS/MS of metabolites on CYP2D6"}, "CYP3A4": {"biological_target": "T5, CYP3A4 (Homo sapiens, UniProt P08684)", "T5 construct": "native enzyme in pooled human liver microsomes (BD Gentest); activity read by testosterone 6beta-hydroxylation (CYP3A5 may contribute)", "T5 sequence (P08684 2-503)": "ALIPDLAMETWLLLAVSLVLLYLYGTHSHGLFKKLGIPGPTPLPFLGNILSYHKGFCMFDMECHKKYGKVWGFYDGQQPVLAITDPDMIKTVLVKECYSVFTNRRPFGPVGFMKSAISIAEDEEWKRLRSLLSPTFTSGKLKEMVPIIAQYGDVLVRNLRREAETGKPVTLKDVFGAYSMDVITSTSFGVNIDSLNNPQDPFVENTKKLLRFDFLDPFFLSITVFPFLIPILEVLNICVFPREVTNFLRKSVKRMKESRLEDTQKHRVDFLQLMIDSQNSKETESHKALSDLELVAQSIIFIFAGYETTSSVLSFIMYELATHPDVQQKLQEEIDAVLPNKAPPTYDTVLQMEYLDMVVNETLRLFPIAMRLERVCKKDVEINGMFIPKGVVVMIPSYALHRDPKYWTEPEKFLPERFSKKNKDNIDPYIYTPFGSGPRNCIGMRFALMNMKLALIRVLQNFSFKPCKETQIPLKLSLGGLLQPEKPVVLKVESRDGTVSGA", "details": "testosterone 6β-hydroxylation, printed 50 mM testosterone (unit as printed), otherwise as row above; unreliable (extrapolated above top concentration 100 μM; text says > 100 μM)", "source_text": "five-probe cocktail in human liver microsomes, LC-MS/MS of metabolites on CYP3A4"}},
  "data": [
    {"compound": "CCOC(=O)C1=C[C@]2(CC)CCCN3CCc4c(n1c1ccccc41)[C@@H]32", "note": "[Vinpocetine, ethyl (3α,16α)-eburnamenine-14-carboxylate]", "values": [
      {"measurement": "IC50 (μM)", "setting": "CYP2C9", "value": "68.96 [95% CI: 49.14–96.79] μM"},
      {"measurement": "IC50", "setting": "CYP2E1", "value": 2837, "unit": "µM"},
      {"measurement": "IC50", "setting": "CYP2C19", "value": 285.1, "unit": "µM"},
      {"measurement": "IC50", "setting": "CYP2D6", "value": 104.4, "unit": "µM"},
      {"measurement": "IC50", "setting": "CYP3A4", "value": 107.1, "unit": "µM"}
    ]}
  ]
}
